Reference: article PMC11335300, “The novel function of an orphan pheromone receptor reveals the sensory specializations of two potential distinct types of sex pheromones in noctuid moth” (Cellular and Molecular Life Sciences: CMLS, 2024)

Target: T1, HarmOR11/Orco (Helicoverpa armigera, UniProt A0A7D5JUD6)
T1 construct: full-length HarmOR11 and HarmOrco cloned from antennal cDNA into pT7Ts; cRNAs co-injected in Xenopus laevis oocytes; heteromeric channel, exact stoichiometry unknown (2:2 only modelled); with Odorant receptor coreceptor
T1 sequence (A0A7D5JUD6 1-431): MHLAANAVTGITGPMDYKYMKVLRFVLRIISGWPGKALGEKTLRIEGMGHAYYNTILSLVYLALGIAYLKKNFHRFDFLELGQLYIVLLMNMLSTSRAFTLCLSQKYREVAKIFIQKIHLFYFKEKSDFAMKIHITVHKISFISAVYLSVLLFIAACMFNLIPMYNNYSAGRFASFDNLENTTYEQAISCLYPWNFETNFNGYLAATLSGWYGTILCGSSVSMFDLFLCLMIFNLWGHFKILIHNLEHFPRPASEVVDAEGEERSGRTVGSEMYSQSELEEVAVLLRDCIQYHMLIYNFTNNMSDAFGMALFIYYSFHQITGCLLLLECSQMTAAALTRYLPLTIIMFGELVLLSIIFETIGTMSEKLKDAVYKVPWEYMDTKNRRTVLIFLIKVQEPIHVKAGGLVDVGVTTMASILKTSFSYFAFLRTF
T1 sequence (E5KJL4 1-473 partner): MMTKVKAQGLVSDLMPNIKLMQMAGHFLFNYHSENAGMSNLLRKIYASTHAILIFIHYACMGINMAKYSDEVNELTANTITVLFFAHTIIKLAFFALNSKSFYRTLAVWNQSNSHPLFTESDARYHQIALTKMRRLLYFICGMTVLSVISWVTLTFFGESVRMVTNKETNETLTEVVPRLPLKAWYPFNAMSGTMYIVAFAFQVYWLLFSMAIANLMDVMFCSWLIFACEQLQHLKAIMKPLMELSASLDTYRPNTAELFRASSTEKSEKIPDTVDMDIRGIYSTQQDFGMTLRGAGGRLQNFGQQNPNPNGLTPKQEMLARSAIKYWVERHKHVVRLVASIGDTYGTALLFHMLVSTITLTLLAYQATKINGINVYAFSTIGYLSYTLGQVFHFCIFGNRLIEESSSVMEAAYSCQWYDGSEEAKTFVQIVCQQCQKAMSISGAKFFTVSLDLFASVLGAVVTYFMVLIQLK
Assay: two-electrode voltage clamp of Xenopus oocytes co-expressing HarmOR11/Orco
Assay type: cell-based
Conditions: agonist; holding potential -80 mV; Ringer's buffer pH 7.6; from DMSO stock; unit printed as mol (concentration meant)

CC/C=C\C/C=C\C/C=C\CCCCCCCCCCC [3Z,6Z,9Z-21:H, 3Z,6Z,9Z-heneicosatriene]
EC50: 1.637e-05 mol
